Data: paper PMC10730852 (Communications Biology, 2023)
“And” between values parts separate entries of the source, which are not always exact repeats. Equal entries are not always repeated.

Key:
[1] = system: Cph001; assay: Coupled enzyme assay and Michaelis-Menten kinetics of Cph001; format: biochemical, Streptosporangium roseum; parameters: initial velocity, Figure 3c iii, Triplicate: unit not given here; conditions: for initial velocity, Figure 3c iii, Triplicate: 20 mM CMN IIA; for phosphorylation by Cph001 in couple enzyme assay: 2 mM antibiotic substrate, ATP as phosphate donor, absorbance at 340 nm
Protocol: The phosphorylation reaction was measured by a coupled enzyme assay as following. […] The reactions were mixed well in a final volume of 200 μL in 96-well plates. The Cph001 activity was assayed by determining the oxidation of NADH at 340 nm. The reaction buffer and enzyme concentration of the Cph reaction was followed by previous study. The 340 nm absorbance changes were detected at 30 °C for every 1 min at a time in 15 min on an EPOCH Microplate Reader (BioTek). All reactions were carried out in triplicate.
The initial velocity data were plotted against substrate concentrations and fit the Michaelis-Menten equation. The Km and Vmax values were calculated based on the Michaelis-Menten equation. GraphPad Prism was used for statistical data analysis. All reactions were carried out in triplicate.

[2] = system: E. coli/pET-22b (Control); assay: Disk diffusion assay; format: cell-based, E. coli BL21 Rosetta (DE3); conditions: Escherichia coli, 37 °C, 24 hr, read-out: inhibition zones; for zone of inhibition at 12.5 µg/disc: 12.5 μg on disk; for zone of inhibition at 50 µg/disc: 50 μg on disk; for zone of inhibition at 100 µg/disc: 100 μg on disk; for zone of inhibition at 200 µg/disc: 200 μg on disk
Protocol: The E. coli BL21 Rosetta (DE3) strains containing pET22b, and its carrying cph, cph001, cph002, cph003, aph(3′)-Ia, and mphB plasmids were cultured overnight. The cells, respectively, were then diluted to 0.1 OD600 in molten LB agar with 100 μg/mL ampicillin and 500 μM IPTG for the disk diffusion assay. The cells with ampicillin and IPTG were mixed well with molten LB agar and then poured into 10 cm diameter Petri dishes. […] The Petri dishes were placed in the incubator at 37 °C and the inhibition zones were observed after 24 hr.

[3] = biological target: T1, Cph001 (Streptosporangium roseum, UniProt D2B3F1); assay: Isothermal titration calorimetry (ITC) analysis of Cph001; format: binding
T1 sequence (D2B3F1 1-286): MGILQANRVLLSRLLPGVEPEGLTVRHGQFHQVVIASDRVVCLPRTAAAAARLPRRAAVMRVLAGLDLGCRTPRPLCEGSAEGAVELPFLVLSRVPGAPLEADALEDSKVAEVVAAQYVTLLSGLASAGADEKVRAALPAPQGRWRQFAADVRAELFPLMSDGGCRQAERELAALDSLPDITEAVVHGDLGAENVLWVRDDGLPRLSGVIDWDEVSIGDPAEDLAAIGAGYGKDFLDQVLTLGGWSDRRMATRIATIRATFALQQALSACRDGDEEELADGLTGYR
Excerpt: The integrated heat areas constitute a differential binding curve that was fitted with a standard single-site binding model by Origin 7.

[4] = system: E. coli/cph; assay: Disk diffusion assay; format: cell-based, E. coli BL21 Rosetta (DE3); conditions: Escherichia coli, 24 h, read-out: inhibition zones
Protocol: (§1) The E. coli BL21 Rosetta (DE3) strains containing pET22b, and its carrying cph, cph001, cph002, cph003, aph(3′)-Ia, and mphB plasmids were cultured overnight. The cells, respectively, were then diluted to 0.1 OD600 in molten LB agar with 100 μg/mL ampicillin and 500 μM IPTG for the disk diffusion assay. The cells with ampicillin and IPTG were mixed well with molten LB agar and then poured into 10 cm diameter Petri dishes. The 7 mm disks were placed onto the LB agar and gently loaded with varying quantities of CMN IIA, CMN IIB, VIO, Kan, and Ery, ranging from 0 to 200 μg. The Petri dishes were placed in the incubator at 37 °C and the inhibition zones were observed after 24 hr.

[5] = system: E. coli/cph001; assay: Disk diffusion assay; format: cell-based, E. coli BL21 Rosetta (DE3)
Protocol: as §1

[6] = biological target: Cph; parameters: method as in ACS Chem. Biol. 17, 138, 2022; conditions: ITC; ref ACS Chem. Biol. 17, 138, 2022; read-out: KD values for Cph interaction; cited from earlier work
[7] = system: E. coli/mphB; assay: Disk diffusion assay; format: cell-based, E. coli BL21 Rosetta (DE3); conditions: Escherichia coli, 24 h, read-out: inhibition zones
Protocol: as §1

[8] = Escherichia coli, 24 h, read-out: inhibition zones

Nc1ncnc2c1ncn2C1OC(COP(=O)(O)OP(=O)(O)OP(=O)(O)O)C(O)C1O (stereo not drawn) [ATP]
initial velocity, Figure 3c iii, Triplicate ([1]; 0.01 mM ATP): 0.0001332 and 0.000121 and 0.0001197 | initial velocity, Figure 3c iii, Triplicate ([1]; 0.02 mM ATP): 0.0001161 and 0.0001344 and 0.0001332 | initial velocity, Figure 3c iii, Triplicate ([1]; 0.05 mM ATP): 0.0002407 and 0.0001564 and 0.0001833 | initial velocity, Figure 3c iii, Triplicate ([1]; 0.1 mM ATP): 0.0002407 and 0.0002053 and 0.0001552 | initial velocity, Figure 3c iii, Triplicate ([1]; 0.2 mM ATP): 0.0003336 and 0.0003519 and 0.0003385 | initial velocity, Figure 3c iii, Triplicate ([1]; 0.4 mM ATP): 0.0003201 and 0.0003715 and 0.0003678 | initial velocity, Figure 3c iii, Triplicate ([1]; 0.6 mM ATP): 0.0004387 and 0.0003983 | initial velocity, Figure 3c iii, Triplicate ([1]; 0.8 mM ATP): 0.0003825 and 0.0004668 and 0.0004985 | kcat, phosphate donor varied ([1]; in the presence of saturating CMN IIA (20 mM), mean ± SEM, n = 3): 0.58 ± 0.03 min⁻¹ | Km ([1]; in the presence of saturating CMN IIA (20 mM), mean ± SEM, n = 3, read-out: apparent Km of the phosphate donor): 70 ± 20 µM

C[C@@H]1NC(=O)[C@@H](N)CNC(=O)[C@H](C2CCNC(=N)N2)NC(=O)/C(=C/NC(N)=O)NC(=O)[C@H](CNC(=O)C[C@@H](N)CCCN)NC1=O (stereo partly drawn) [CMN IIB]
zone of inhibition at 12.5 µg/disc [2]: 17 mm | zone of inhibition at 50 µg/disc [2]: 23 mm | zone of inhibition at 100 µg/disc [2]: 25 mm | zone of inhibition at 200 µg/disc [2]: 27 mm | phosphorylation by Cph001 in couple enzyme assay [1]: incapable of phosphorylating | Kd [3]: 55.2 ± 4.4 µM | zone of inhibition at 50 µg/disc [4]: 12 mm | zone of inhibition at 100 µg/disc [4]: 14 mm | zone of inhibition at 200 µg/disc [4]: 16 mm | resistance in disk diffusion assay ([5]; E. coli harboring cph001): capable of endowing E. coli with resistance | zone of inhibition at 12.5 µg/disc [5, 8]: 11 mm | zone of inhibition at 50 µg/disc [5, 8]: 14 mm | zone of inhibition at 100 µg/disc [5, 8]: 16 mm | zone of inhibition at 200 µg/disc [5, 8]: 17.5 mm | Kd [6]: 5.48 µM

CC[C@H]1OC(=O)[C@H](C)[C@@H](O[C@H]2C[C@@](C)(OC)[C@@H](O)[C@H](C)O2)[C@H](C)[C@@H](O[C@@H]2O[C@H](C)C[C@H](N(C)C)[C@H]2O)[C@](C)(O)C[C@@H](C)C(=O)[C@H](C)[C@@H](O)[C@]1(C)O [Ery, erythromycin]
zone of inhibition at 12.5 µg/disc [2]: 24 mm | zone of inhibition at 50 µg/disc [2]: 27 mm | zone of inhibition at 100 µg/disc [2]: 29 mm | zone of inhibition at 200 µg/disc [2]: 31 mm | phosphorylation by Cph001 in couple enzyme assay [1]: only capable of phosphorylating VIO | zone of inhibition at 12.5 µg/disc [7]: 15.5 mm | zone of inhibition at 50 µg/disc [7]: 21.5 mm | zone of inhibition at 100 µg/disc [7]: 23 mm | zone of inhibition at 200 µg/disc [7]: 24 mm | zone of inhibition at 12.5 µg/disc [5, 8]: 23 mm | zone of inhibition at 200 µg/disc [5, 8]: 32 mm
